Reference: the supplement of paper PMC10331698
± gives the standard deviation of the averaged measurements.

What was measured:
Experiment in all cases: level (log10 ratio to DMSO vehicle control); higher = higher biomarker level / cell amount than vehicle control
Settings in all cases: in DMSO
[1] = compound: O=C(Cl)C(F)(F)C(F)(F)C(F)(F)C(=O)Cl [Hexafluoroglutaryl chloride]
Protocol: (§1)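 BioMAP Diversity Plus panel of 12 human primary cell co-culture systems (3C, 4H, LPS, SAg, BT, BF4T, BE3C, CASM3C, HDF3CGF, KF3CT, MyoF, Mphg). Compounds were added 1 h before stimulation and left for 24 h (MyoF 48 h; BT 72 h for soluble read-outs or 6 d for IgG). Biomarkers were read by ELISA, cytotoxicity by SRB, PBMC viability and proliferation by Alamar Blue. Each well value was divided by the mean of 8 DMSO control wells on the same plate and log10 transformed; duplicate blinded samples were tested at 4 concentrations.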

[2] = compound: O=C(CC(=O)C(F)(F)C(F)(F)C(F)(F)F)c1cccs1 [(Perfluorobutyryl)-2-thenoylmethane]
Protocol: as §1

[3] = compound: OCCCCC(F)(F)C(F)(F)C(F)(F)C(F)(F)F [4:4 Fluorotelomer alcohol]
Protocol: as §1

[4] = compound: O=S(=O)(O)CCC(F)(F)C(F)(F)C(F)(F)C(F)(F)F [4:2 Fluorotelomer sulfonic acid]
Protocol: as §1

[5] = compound: C=C(C)C(=O)OCC(F)(F)C(F)(F)C(F)(F)F [2,2,3,3,4,4,4-Heptafluorobutyl methacrylate]
Protocol: as §1

Methotrexate = compound: CN(Cc1cnc2nc(N)nc(N)c2n1)c1ccc(C(=O)N[C@@H](CCC(=O)O)C(=O)O)cc1 [Methotrexate]
Protocol: as §1

Row | Test System | level (log10) ([1]; 6700 nM) | level (log10) ([1]; 20000 nM) | level (log10) ([1]; 60000 nM) | level (log10) ([2]; 6700 nM) | level (log10) ([2]; 20000 nM) | level (log10) ([3]; 6700 nM) | level (log10) ([3]; 20000 nM) | level (log10) ([3]; 60000 nM) | level (log10) ([4]; 6700 nM) | level (log10) ([4]; 20000 nM) | level (log10) ([4]; 60000 nM) | level (log10) ([5]; 6700 nM) | level (log10) ([5]; 20000 nM) | level (log10) ([5]; 60000 nM) | level (log10) (Methotrexate; 1500 nM) | level (log10) (Methotrexate; 4400 nM) | level (log10) (Methotrexate; 13000 nM) | level (log10) (Methotrexate; 40000 nM)
1 | CASM3C:PAI-I | -0.0135 ± 0.021 | 0.0025 ± 0.0078 | 0.0065 ± 0.0021 | -0.0135 ± 0.005 | -0.008 ± 0.0057 | 0.017 ± 0.016 | 0.013 ± 0.023 | 0.0085 ± 0.026 | -0.002 ± 0.0014 | -0.0015 ± 0.00071 | -0.002 ± 0.0057 | -0.003 ± 0.0042 | 0.0005 ± 0.0021 | 0.001 ± 0.0042 | 0.004 ± 0.013 | 0.0035 ± 0.0064 | 0.0125 ± 0.0035 | 0.0105 ± 0.0021
2 | KF3CT:MMP-9 | -0.0515 ± 0.013 | -0.0255 ± 0.028 | -0.024 ± 0.03 | -0.107 ± 0.027 | -0.122 ± 0.012 | -0.011 ± 0.013 | -0.003 ± 0.034 | 0.011 ± 0.021 | 0.0075 ± 0.012 | -0.011 ± 0.037 | 0.023 ± 0.0057 | -0.029 | -0.0115 ± 0.00071 | 0.0085 ± 0.0092 | 0.017 ± 0.013 | -0.001 ± 0.014 | -0.0045 ± 0.04 | 0.0075 ± 0.019
3 | BE3C:SRB | 0.0045 ± 0.0092 | 0.0065 ± 0.013 | 0.0115 ± 0.0035 | -0.02 ± 0.0071 | -0.031 ± 0.0071 | -0.0065 ± 0.0035 | -0.0035 ± 0.005 | 0.0015 ± 0.016 | 0.0015 ± 0.00071 | -0.007 ± 0.0085 | 0.0005 ± 0.0078 | -0.003 ± 0.011 | -0.0095 ± 0.0064 | -0.001 ± 0.0071 | -0.0035 ± 0.0064 | -0.009 ± 0.0014 | -0.0025 ± 0.00071 | 0.001 ± 0.014
4 | KF3CT:CXCL10/IP-10 | -0.0105 ± 0.013 | 0.0045 ± 0.0035 | -0.0025 ± 0.015 | -0.0205 ± 0.00071 | -0.018 ± 0.0014 | 0.0105 ± 0.04 | 0.02 ± 0.03 | 0.0275 ± 0.037 | -0.007 ± 0.0028 | -0.0145 ± 0.011 | -0.0115 ± 0.0092 | 0.0055 ± 0.00071 | -0.001 ± 0.0057 | 0.0085 ± 0.005 | 0.0025 ± 0.018 | 0.0015 ± 0.011 | 0.004 ± 0.011 | -0.0005 ± 0.021
5 | HDF3CGF:CD54/ICAM-1 | -0.0015 ± 0.0035 | -0.007 ± 0.0042 | -0.001 ± 0.0099 | -0.0475 ± 0.011 | -0.0295 ± 0.0064 | -0.0135 ± 0.0064 | -0.003 ± 0.011 | -0.0125 ± 0.013 | -0.013 ± 0.016 | -0.01 ± 0.017 | -0.0175 ± 0.013 | -0.008 ± 0.0071 | -0.013 ± 0.0071 | -0.007 ± 0.0099 | -0.0015 ± 0.00071 | 0.0045 ± 0.005 | 0.0055 ± 0.013 | -0.0065 ± 0.025
6 | MyoF:bFGF | 0.0045 ± 0.0035 | -0.0035 ± 0.0078 | 0.0135 ± 0.0035 | 0.002 ± 0.0028 | -0.0175 ± 0.00071 | 0.0035 ± 0.0035 | -0.009 ± 0.021 | 0.005 ± 0.042 | -0.001 ± 0.0071 | 0.0025 ± 0.028 | 0.0055 ± 0.022 | 0.007 ± 0.0099 | -0.01 ± 0.0085 | 0.007 ± 0.024 | -0.0095 ± 0.015 | -0.0045 ± 0.021 | 0.009 ± 0.0071 | -0.0095 ± 0.0035
7 | lMphg:CD106/VCAM-1 | -0.0075 ± 0.0078 | -0.0015 ± 0.037 | -0.0145 ± 0.042 | -0.006 ± 0.0057 | -0.0715 ± 0.036 | -0.0195 ± 0.005 | -0.0045 ± 0.019 | -0.0025 ± 0.042 | -0.0145 ± 0.0078 | -0.0075 ± 0.011 | -0.0135 ± 0.005 | 0.0005 ± 0.0021 | 0.005 ± 0.04 | 0.0115 ± 0.026 | -0.001 ± 0.025 | -0.016 ± 0.021 | -0.002 ± 0.0057 | -0.007 ± 0.021
8 | BE3C:MMP-1 | -0.001 ± 0.014 | -0.008 ± 0.014 | 0.0065 ± 0.016 | 0.0945 ± 0.015 | -0.051 ± 0.017 | 0.0005 ± 0.03 | 0.006 ± 0.02 | 0.022 ± 0.05 | 0.002 ± 0.0014 | -0.0035 ± 0.0035 | 0.038 ± 0.057 | -0.012 ± 0.0014 | -0.0055 ± 0.015 | 0.048 ± 0.014 | -0.028 ± 0.024 | -0.011 ± 0.044 | 0.034 ± 0.016 | 0.031 ± 0.014
9 | KF3CT:PAI-I | -0.012 ± 0.028 | -0.0005 ± 0.0078 | -0.0055 ± 0.015 | -0.035 ± 0.0071 | -0.058 ± 0.013 | -0.012 ± 0.017 | -0.0075 ± 0.013 | -0.009 ± 0.013 | -0.005 ± 0.0071 | -0.015 ± 0.0014 | -0.0175 ± 0.0064 | 0.005 ± 0.0099 | 0.008 ± 0.0014 | 0.014 | 0.006 ± 0.014 | -0.036 ± 0.031 | -0.0145 ± 0.025 | -0.007 ± 0.1
10 | MyoF:PAI-I | -0.001 ± 0.0085 | 0.02 ± 0.013 | 0.01 ± 0.0042 | 0.0095 ± 0.0035 | 0.013 ± 0.0085 | 0.0125 ± 0.011 | 0.007 ± 0.011 | 0.0095 ± 0.016 | -0.0015 ± 0.00071 | 0.0055 ± 0.0035 | 0.0055 ± 0.012 | -0.001 ± 0.0085 | 0.008 ± 0.0085 | 0.015 ± 0.0014 | -0.026 ± 0.072 | -0.011 ± 0.035 | 0.0015 ± 0.016 | -0.0185 ± 0.084
11 | 3C:CD141/Thrombomodulin | -0.0455 ± 0.013 | -0.0275 ± 0.0078 | -0.056 ± 0.057 | -0.113 ± 0.081 | -0.071 ± 0.05 | -0.0225 ± 0.035 | -0.0265 ± 0.067 | -0.007 ± 0.076 | -0.014 ± 0.0028 | -0.005 ± 0.013 | -0.013 ± 0.044 | -0.009 ± 0.0099 | -0.0145 ± 0.013 | 0.002 ± 0.0071 | -0.024 ± 0.0085 | -0.016 ± 0.0057 | -0.0235 ± 0.067 | -0.0265 ± 0.019
12 | lMphg:CD69 | -0.021 ± 0.011 | -0.032 ± 0.018 | -0.0135 ± 0.029 | -0.169 ± 0.049 | -0.23 ± 0.013 | -0.0475 ± 0.04 | -0.063 ± 0.018 | -0.014 ± 0.045 | -0.023 ± 0.0028 | -0.014 ± 0.021 | -0.044 ± 0.059 | -0.0035 ± 0.044 | -0.0335 ± 0.025 | -0.0615 ± 0.047 | -0.03 ± 0.021 | -0.0135 ± 0.036 | -0.0325 ± 0.057 | -0.034 ± 0.054
13 | MyoF:TIMP-1 | -0.04 ± 0.057 | -0.024 ± 0.027 | 0.0175 ± 0.04 | -0.042 ± 0.047 | -0.0405 ± 0.015 | 0.021 ± 0.062 | 0.0235 ± 0.067 | 0.0315 ± 0.087 | -0.0465 ± 0.069 | -0.0285 ± 0.047 | -0.0095 ± 0.036 | 0.017 ± 0.028 | 0.0135 ± 0.025 | 0.0075 ± 0.0064 | -0.0025 ± 0.0021 | -0.025 ± 0.027 | -0.012 ± 0.033 | -0.0285 ± 0.084
14 | HDF3CGF:Proliferation 72hr | 0.001 ± 0.0042 | -0.0005 ± 0.012 | -0.0095 ± 0.019 | -0.38 ± 0.0092 | -0.485 ± 0.005 | -0.003 ± 0.044 | 0.0205 ± 0.057 | 0.0355 ± 0.039 | -0.022 ± 0.092 | 0.001 ± 0.021 | -0.007 ± 0.047 | -0.0095 ± 0.087 | 0.001 ± 0.042 | 0.008 ± 0.0071 | -0.0885 ± 0.042 | -0.076 ± 0.13 | -0.0515 ± 0.036 | -0.083 ± 0.05
15 | CASM3C:Serum Amyloid A | -0.022 ± 0.038 | -0.008 ± 0.0042 | -0.002 ± 0.0014 | 0.0285 ± 0.013 | -0.038 ± 0.013 | -0.0055 ± 0.025 | -0.01 ± 0.047 | 0.0295 ± 0.063 | -0.008 ± 0.017 | -0.0055 ± 0.0021 | -0.015 ± 0.041 | 0.0145 ± 0.0078 | 0.03 ± 0.021 | 0.0075 ± 0.0064 | -0.0405 ± 0.015 | -0.0145 ± 0.028 | 0.002 ± 0.045 | -0.044 ± 0.068
16 | MyoF:SRB | 0 ± 0.011 | 0.003 ± 0.0028 | -0.003 ± 0.018 | -0.0225 ± 0.022 | -0.0395 ± 0.0035 | -0.0025 ± 0.0035 | -0.0065 ± 0.0021 | 0.006 ± 0.017 | -0.004 ± 0.0071 | -0.0045 ± 0.0021 | -0.004 ± 0.0028 | -0.005 ± 0.016 | -0.0005 ± 0.0021 | 0.0035 ± 0.011 | 0.012 ± 0.013 | 0.003 | 0.0125 ± 0.0064 | -0.0005 ± 0.005
